Entries after “also recorded” stand apart in the source; their conditions may differ.
How the values were obtained:
NG108-15 cells [1] = test: Antibody staining, BrdU and senescence assays in NG108-15 cells; type: cell-based, mouse/rat; settings: NG108-15, 6 days
Method: Antibody Staining, BrdU and Senescence Assays. NG108-15 cells were plated on PEI and Matrigel coated plates at 15,000 or 30,000 cells/mL, U87 cells at 10,000 cells/mL and grown in imaging media for 6 days with drug treatment. Fresh media was added every 2 days. On day 6, cells were fixed with 4% formaldehyde in PBS for 30 minutes for all antibody staining, except for BrdU which was fixed for 15 minutes, and for the senescence assay which was fixed for 20 min using the Senescence Beta-Galactosidase Staining Kit (9860, CellSignaling) and thereafter stained according to manufacturer's protocol. After fixing, cells were washed twice with PBS, and were permeabilized in PBS with 0.3% Triton-X for 15 min then washed again twice with PBS. The cells for the BrdU assay were additionally treated with 1N HCl for 10 min on ice, followed by a treatment with 2N HCl for 50 min at room temp. Cells were then blocked with standard blocking buffer comprised of TBS containing 10% goat serum, 0.1% BSA, and with 0.05% Tween 20 or without detergent for antibodies against phosphorylated proteins or monoclonal antibodies except for Anti-YAP and Anti-BrdU staining, which were done according to manufacturer's protocol. Primary antibodies were added at the following concentrations: 1:250 anti-S100 beta (GTX129573, Genetex), 1:500 anti-GFAP (AB5804, EMD-Millipore), 1:300 anti-SOX10 (ab155279, Abcam), 1:100 MAP2 (4542, CellSignaling), 1:400 anti-cleaved caspase 3 (9661, CellSignaling), 1:300 anti-Cx43 (STJ2411, St. John's Labratory), 1:800 anti-p27^Kip1 (3698, CellSignaling), 1:150 anti-BrdU (5292, CellSignaling), 1:125 anti-LC3-II (2775, CellSignaling), 8 μg/mL anti-04 (MAB1326, R&D Systems), 1:1000 anti-TH (RPCA-TH, Encor), 1:4000 anti-NSE (RPCA-NSE, Encor), 1:4000 anti-NFM (RPCA-NF-M, Encor), 0.5 μg/mL anti-TujI (801202, Biolegend), 1:400 anti-NF-KB p65 (8242, CellSignaling), 1:125 anti-phospho CREB (05-807, EMD-Millipore), 1:250 anti-vimentin (ab92547, Abcam), 1:125 anti-YAP (14074, CellSignaling). Antibodies were diluted in their respective blocking buffer and incubated overnight at 4° C. The next day, cells were washed with TBS-T or TBS for 3× for 5 min each and secondary antibody was added as follows: 1:1000 donkey anti-mouse 647 (A-31571, Thermo-Fisher) or 1:1000 donkey anti-rabbit 647 (A-31573, Thermo-Fisher). Each were diluted in blocking buffer along with 2.5 μg/mL Hoechst 33342 and incubated for 1 hour at room temperature. Cells were then washed again with TBS-T or TBS for 3× for 5 min each and covered with Gelvatol. Cells were imaged with an EVOS M7000 system, with at least 50% of each well in a 96 well plate imaged and analyzed using a CellProfiler pipeline for measuring integrated intensity, mean intensity, or nuclear to cytoplasmic ratio of mean intensities.

NG108-15 cells [2] = test: Growth and FUCCI assays in NG108-15 cells (cell counts, cell cycle, recovery test); settings: for fold decrease in proliferation compared to control: high serum; for FUCCI cell cycle proportion: NG108-15, day 6
U87 cells = test: Physiological dye staining of U87 cells (DiBAC4(3), pHrodo Green, LysoSensor Green, Fluo-4 AM); type: cell-based, human
Method: Dye Staining Protocols. For the Live/Dead assay, 1 μM Calcein Green AM and 0.5 μM ethidium homodimer-1 (L3224, ThermoFisher) were added to PBS along with 10 μg/mL of Hoechst to make the staining solution. Half the media was removed from the human neuronal cells that had been incubated with treatments for 3 days and replaced with staining solution. […] Cells were then incubated for 15 min at 37° C. and imaged. For resting membrane potential staining, DiBAC4(3) was used. U87 cells were seeded at 10,000 cells per mL on Matrigel coated plates as described above. Cells were treated with drugs for 6 days with changes in media every other day. On day 6 the media was removed and washed once with dye buffer consisting of Hank's Balanced Salt Solution (HBSS) with 20 mM HEPES at pH 7.4 and then the staining solution, consisting of dye buffer with 2 μM DiBAC4(3) was added to the cells and allowed to incubate for 30 min at 37° C. The staining solution was then removed and fresh staining solution containing the treatments were added to the cells. For cytoplasmic calcium staining, Fluo-4 AM was used. The staining solution consisted of dye buffer with 4 μM Fluo-4 AM and a 1:1 ratio of Pluronic F-127 (20% in DMSO) and allowed to incubate for 30 min at room temperature. The staining solution was then removed, and fresh dye buffer was added and allowed to incubate for 20 min at 37° C. Then dye buffer containing the treatments were added to the cells. For cytoplasmic pH staining, pHrodo Green was used. The staining solution consisted of dye buffer with a 1:1000 dilution of the pHrodo Green stock and a 1:100 dilution of the PowerLoad concentrate (P35373, ThermoFisher). The cells were allowed to incubate for 30 min at 37° C. Staining solution was removed and washed once with dye buffer then fresh dye buffer containing the treatments were added and allowed to incubate for 5 min at 37° C. Calibration curve was done by instead adding the components of the intracellular pH calibration kit (P35379 ThermoFisher). For lysosomal pH staining, LysoSensor Green was used. The staining solution consisted of dye buffer with a 1 μM dilution of LysoSensor Green DND-187 (L7535 ThermoFisher). The cells were incubated as above and staining solution was removed and replaced with dye buffer containing 2.5 μg/mL Hoechst 33342 for 10 min. Hoechst was removed and cells were washed with dye buffer one time before adding dye buffer containing the treatments. Cells were imaged using an EVOS M7000 system outfitted with a GFP filter cube for stains and a DAPI filter for Hoechst. Images were then analyzed using a CellProfiler pipeline.

[3] = test system: human glioblastoma U87 cells; test: Growth and FUCCI assays in U87 cells (cell counts, cell cycle, recovery test); type: cell-based; settings: for FUCCI cell cycle proportion: U87, day 6; for recovery of proliferation after treatment removed: U87, drugs removed at day 6, followed to day 10
Method: U87 (ATCC) cells were cultured under the same conditions as the NG108-15 cells minus the HAT supplement and used at passage 7-10 for experiments.

SMILES: O=C(Nc1cc(C(F)(F)F)ccc1O)Nc1cc(C(F)(F)F)ccc1O [NS1643]
- cleaved caspase 3 staining (NG108-15 cells [1]): decrease the cleaved caspase 3 positive cells significantly
- size of the nuclei (NG108-15 cells [1]): significantly larger
- fold decrease in proliferation compared to control (NG108-15 cells [2]; NG108-15, 6 days of treatment, NS1643 at 20 μM): about 1.6 fold
- fold decrease in proliferation compared to control (NG108-15 cells [2]; NG108-15, 6 days of treatment, NS1643 at 50 μM): ~2.4 fold
- FUCCI cell cycle proportion (NG108-15 cells [2]): did not seem to affect the cell cycle proportion
- resting membrane potential by voltage dye DiBAC4(3) (U87 cells; U87, 6 day treated): significant hyperpolarization
- cytoplasmic calcium levels (Fluo-4AM) (U87 cells; U87, 6 days): increase cytoplasmic calcium levels
- lysosomal pH (LysoSensor Green) (U87 cells; U87, 6 days): dramatic alkalization of the lysosomes
- fold decrease in cell proliferation to control ([3]; U87, 6 days, NS1643 at 50 μM): 1.7 fold
- FUCCI cell cycle proportion [3]: did not show a large change in proportion of cells
- recovery of proliferation after treatment removed [3]: high increase in proliferation

SMILES: COc1ccnc(C[S+]([O-])c2nc3ccc(OC(F)F)cc3[nH]2)c1OC (centres unmarked) [Pantoprazole, pantoprazole]
- BrdU incorporation (NG108-15 cells [1]): significant decrease
- S100B and GFAP markers (NG108-15 cells [1]): significantly upregulated
- cleaved caspase 3 staining (NG108-15 cells [1]): significant increase in cleaved caspase 3 staining
- connexin 43 (Cx43) expression (NG108-15 cells [1]): increase in connexin 43 (Cx43) expression
- senescence-associated beta-galactosidase activity stain (NG108-15 cells [1]): very significant increase
- size of the nuclei (NG108-15 cells [1]): significantly larger
- cell proliferation compared to control (words) (NG108-15 cells [2]; NG108-15, 6 days of treatment): very significant decrease in cell proliferation
- FUCCI cell cycle proportion (NG108-15 cells [2]): increase in cells arrested at late S phase; also recorded: increases the proportion of cells in early S
- recovery of proliferation after treatment removed (NG108-15 cells [2]; NG108-15, drugs removed at day 6, followed to day 10): immediately re-entered the cell cycle
- lysosomal pH (LysoSensor Green) (U87 cells; U87, 6 days): did not show an alkalinization of the lysosome
- lysosomes (LysoSensor Green signal) (U87 cells; U87, 6 days): significant increase in lysosomes
- cell proliferation compared to single compound alone ([3]; U87, 6 days): significantly more effective at reducing cell proliferation after 6 days of treatment than TMZ alone
- percent reduction in cells compared to control ([3]; U87, 6 days of treatment): 54%
- FUCCI cell cycle proportion [3]: increase in the early S proportion of cells
- recovery of proliferation after treatment removed [3]: immediately re-entered the cell cycle

Source: patent US20250049747A1, “USE OF HYPERPOLARIZING AGENTS ALONE AND IN COMBINATION WITH OTHER THERAPEUTIC AGENTS FOR TREATING CANCERS INCLUDING GLIOBLASTOMA” (Trustees of Tufts College, priority 2021, published 2025)
